Test results from US12458666B2 (DOUBLE BOND PHARMACEUTICALS AB, priority 2019, dated 2025).
Like-named read-outs stand apart in the source and are kept apart here.

Experiments:
[1] = cited from earlier work; for Ferritin level after treatment: HF, ejection fraction <40% and anaemia
[2] = Method: (§1) The study was planned as an open pilot study without placebo control. The study was performed at the research unit at the department of Medicine-Geriatric, a special heart failure case record with laboratory data was filed before the start of the study, after six weeks and after 3 months (±2 weeks) at the end of study. Adverse reactions and side effects were registered at each visit.
[3] = irrespective if iron was given orally or intravenously; cited from earlier work
[4] = for median ferritin level: thirteen patients who took study medication according to protocol for 12 weeks, baseline 42 (32-57.5); for Hemoglobin / hsCRP / Hepcidin / Transferrin / Iron / TSAT (transferrin saturation) / Ferritin: intention to treat, 100 mg tablet orally twice a day; for Hemoglobin: 20 patients, baseline 144; for hsCRP: baseline 2.0; for Hepcidin: baseline 2.5; for Transferrin: baseline 2.6; for Iron: baseline 13.5; for TSAT (transferrin saturation): baseline 20; for Ferritin: baseline 47
Method: Most of these patients were screened during the year 2018 until January 2019 were the target population. […] These 42 patients defined by inclusion and exclusion criteria for participation were called by phone and informed about the study. After having given oral and written consent to participate blood sampling was performed to confirm or reject the presence of non-anemic ID.
• All patients with a case record diagnosis of HF, both those with preserved EF or reduced EF were potentially eligible, provided there were no contraindications to participate. • The diagnosis of HF was on symptoms and an ECHO verified reduction of cardiac function, systolic and/or diastolic dysfunction. Those with an EF=<40% were classified as HFrEF and those with EF>40% as preserved HF.
as §1
Inofer® is an oral product against ID in a form of film-coated tablets. […] The patients are given one tablet ( )twice a day during a period of at least three months.
1 tablet was taken in the morning and 1 tablet was taken in the evening at bedtime for at least 3 months. The tablet was not taken with food.
Blood sampling was performed according to local and current guidelines. Blood was centrifuged, divided into aliquots and stored at minus 80° C. in a safe deposit box, Biobank Västerbotten, until analysis. Hemoglobin, CRP, ferritin, serum iron, TSAT and hepcidin were analyzed before start, at 6 weeks and 3 months after treatment.
Continuous variables are presented as means ±standard deviation for normally distributed values, median and interquartile range for skewed variables, and numbers and percentages for categorical variables. Due to skewed variables for ferritin and TSAT non-parametric test was used for related or independent data. Data were analysed using IBM SPSS Software version 24 (IBM Corp. Chicago, Illinois, USA).

[5] = long-term intravenous therapy; cited from earlier work
[6] = cited from earlier work
[7] = percentage of patients exhibiting the symptom in the study
[8] = after oral iron succinate treatment

O=S(=O)([O-])[O-].[Fe+2] [ferrous sulphate]
increase of TSAT, oral vs. intravenous administration of iron ([1]; oral 200 mg 3 times a day compared with intravenous iron sucrose): less | Ferritin level after treatment ([1]; oral 200 mg 3 times a day, from 115±141): 218 ± 189 ng/mL

O=C([O-])CCC(=O)[O-].[Fe+2] [iron succinate, ferrous succinate]
patients who stopped study medication because of vomiting or diarrhea ([2]; of 20 patients): Three | patients who stopped study medication before EOS ([2]; of 20 patients): four | Breathlessness, % [2, 7]: 90% | Constipation, % [2, 7]: 20% | Diarrhea, % [2, 7]: 5% | Stomic pain, % [2, 7]: 10% | Tiredness, % [2, 7]: 80% | uptake compared to other iron compounds [3]: most favourable uptake | increase of ferritin levels in patients with HFpEF compared with HFrEF [4, 8]: about the same magnitude | uptake (levels) in females compared with males [4, 8]: increased rather equally | median ferritin level ([4]; at 6 weeks): 83 (61-110.5) μg/L | median ferritin level ([4]; at 12 weeks): 87 µg/L | Hemoglobin ([4]; median at 6 weeks): 138 g/L | hsCRP ([4]; median at 6 weeks): 2.0 mg/L | Hepcidin ([4]; median at 6 weeks, p=0.006): 4.8 nmol/L | Transferrin ([4]; median at 6 weeks, p=0.038): 2.4 g/L | Iron ([4]; median at 6 weeks): 16.5 µmol/L | TSAT (transferrin saturation) ([4]; median at 6 weeks, p=0.046): 27% | Ferritin ([4]; median at 6 weeks, p=0.009): 78 µg/L | Hemoglobin ([4]; median at 12 weeks): 142 g/L | hsCRP ([4]; median at 12 weeks): 1.9 mg/L | Hepcidin ([4]; median at 12 weeks, p=0.026): 4.2 nmol/L | Transferrin ([4]; median at 12 weeks, p=0.009): 2.3 g/L | Iron ([4]; median at 12 weeks): 16.0 µmol/L | TSAT (transferrin saturation) ([4]; median at 12 weeks, p=0.043): 25% | Ferritin ([4]; median at 12 weeks, p=0.001): 85 µg/L | TSAT at EOS ([4]; one patient who stopped study medication after 3.5 weeks, baseline 16): 21% | ferritin level at EOS ([4]; one patient who stopped study medication after 3.5 weeks, baseline 198): 237 µg/L | increase of ferritin level from baseline to EOS ([4]; one patient who took only one tablet per day for 2.5 weeks): 38% | increase of ferritin level from baseline to EOS ([4]; one patient who took only one tablet per day for 6 weeks): 174% | increase of ferritin level from baseline to EOS ([4]; one patient who took only one tablet per day for 7.5 weeks): 95%

ferric carboxymaltose
symptomatic and morbidity effects in patients with HF [5]: beneficial symptomatic and morbidity effects

iron polysaccharide
uptake in iron deposits ([6]; high dose oral, 16 weeks, HFrEF): marginal uptake | exercise capacity over 16 weeks ([6]; high dose oral, HFrEF): did not improve exercise capacity | TSAT increase ([6]; oral 150 mg twice daily for 16 weeks, HFrEF (<40%) and iron deficiency, CI −3 to 7, placebo 0, p=0.003): 2% | Ferritin increase ([6]; oral 150 mg twice daily for 16 weeks, HFrEF (<40%) and iron deficiency, CI −8 to 38, placebo 1): 18 ng/mL

iron sucrose
Ferritin level after treatment ([1]; intravenous 200 mg per week for 5 weeks, from 167±149): 293 ± 270 ng/mL
